For orientation: IC50 means the point on the concentration scale where inhibition reaches its midpoint.

The record followed here is ChEMBL document CHEMBL4616635, “Investigations of antiproliferative and antioxidant activity of β-lactam morpholino-1,3,5-triazine hybrids” (Bioorg Med Chem, 2020).

Structures are written as SMILES. Converted amounts (≈) assume the structure as drawn. A value given as a limit tells only on which side of the number the result lay.

Assay [1] can be described thus: Antioxidant activity assessed as DPPH radical scavenging activity measured for 5 mins by UV absorbance analysis. It counts as functional. For orientation: DPPH is a stable violet radical that fades when it is reduced.
The next assay relates to SW 1116. Description: Antiproliferative activity against human SW1116 cells assessed as inhibition of cell growth after overnight incubation by MTT assay. The class given is functional, cell-based.
A further assay relates to HepG2. The assay can be described thus: Antiproliferative activity against human HepG2 cells assessed as inhibition of cell growth after overnight incubation by MTT assay. The class given is functional, cell-based.
A further assay deals with MCF7. The assay can be described thus: Antiproliferative activity against human MCF7 cells assessed as inhibition of cell growth after overnight incubation by MTT assay. It counts as functional, cell-based. On the technique in general: Tetrazolium dyes change colour on reduction, which living cells bring about.
The subject of another assay is HEK293. The assay can be described thus: Cytotoxicity against human HEK293 cells assessed as inhibition of cell growth after overnight incubation by MTT assay. The class given is cell-based.
Assay [2] deals with Calf thymus DNA. Description: Binding affinity to calf thymus DNA assessed as binding constant at 40 uM after 2 mins by UV-vis spectroscopy. It counts as nucleic-acid assay. The following applies: Bos taurus.
In assay [3] the test system is Calf thymus DNA. Description: Binding affinity to calf thymus DNA assessed as hyperchromism by measuring blue shift in absorption spectra at 40 uM after 2 mins by UV-vis spectroscopy. The class given is nucleic-acid assay. The following applies: Bos taurus.

In the case of `O=C1N(c2ccc(Nc3nc(N4CCOCC4)nc(N4CCOCC4)n3)cc2)C(c2ccc(Cl)cc2)C12c1ccccc1Oc1ccccc12` (stereo not drawn), the IC50 in assay [1] was above 10000 µg/mL; in the assay on SW 1116, 2.06 µM; with HepG2 it was above 100 µM; in the assay on MCF7, above 100 µM; with HEK293, above 100 µM. For the same compound, the Kb in the assay with Calf thymus DNA [2] came out at 0.935 ×10⁵ /M. The Activity in the assay with Calf thymus DNA [3] was -2 nm.
For the compound `O=C1[C@@H](Oc2ccccc2)[C@@H](c2cccc([N+](=O)[O-])c2)N1c1ccc(Nc2nc(N3CCOCC3)nc(N3CCOCC3)n2)cc1` (relative stereo), the concentration for half-maximal inhibition (IC50) in assay [1] is above 10000 µg/mL; in the assay on SW 1116, 1.98 µM; with HepG2, above 100 µM; in the assay on MCF7, above 100 µM; in the assay with HEK293, above 100 µM. Besides, in the assay with Calf thymus DNA [2], the Kb is 0.943 ×10⁴ /M. Besides, the Activity in the assay on Calf thymus DNA [3] is -2 nm.
Turning to `CCOc1ccc(N2C(=O)[C@@H](Oc3ccccc3)[C@H]2c2ccc(Oc3nc(N4CCOCC4)nc(N4CCOCC4)n3)cc2)cc1` (relative stereo), the IC50 was 5900 µg/mL (≈ 9.44 mM) in assay [1]; above 100 µM in the assay with SW 1116; above 100 µM in the assay with HepG2; above 100 µM in the assay on MCF7; above 100 µM in the assay with HEK293.
Turning to `O=[N+]([O-])c1cccc(/C=N/c2ccc(Nc3nc(N4CCOCC4)nc(N4CCOCC4)n3)cc2)c1`, the concentration for half-maximal inhibition (IC50) was 445 µg/mL (≈ 0.907 mM) in assay [1]; 15.1 µM in the assay on SW 1116; above 100 µM with HepG2; above 100 µM with MCF7; above 100 µM in the assay with HEK293.
Turning to `O=C1N(c2ccc(Nc3nc(N4CCOCC4)nc(N4CCOCC4)n3)cc2)C(c2cccc([N+](=O)[O-])c2)C12c1ccccc1Oc1ccccc12` (stereo not drawn), the IC50 in assay [1] was above 10000 µg/mL; in the assay with SW 1116, above 100 µM; with HepG2 it was above 100 µM; in the assay with MCF7, above 100 µM; with HEK293, above 100 µM.
For `O=C1N(c2ccc(Nc3nc(N4CCOCC4)nc(N4CCOCC4)n3)cc2)C(c2ccc([N+](=O)[O-])cc2)C12c1ccccc1Oc1ccccc12` (stereo not drawn), the concentration for half-maximal inhibition (IC50) in assay [1] was above 10000 µg/mL; in the assay on SW 1116, above 100 µM; in the assay with HepG2, above 100 µM; in the assay with MCF7, above 100 µM; with HEK293, above 100 µM.
As for `O=C1O[C@H]([C@@H](O)CO)C(O)=C1O` [ASCORBIC ACID], the IC50 in assay [1] is 195 µg/mL (≈ 1.11 mM).
Take `CCOc1ccc(/N=C/c2ccc(Oc3nc(N4CCOCC4)nc(N4CCOCC4)n3)cc2)cc1`: the IC50 in assay [1] was 50 µg/mL (≈ 0.102 mM); in the assay with SW 1116 it was above 100 µM; in the assay on HepG2, above 100 µM; in the assay on MCF7, above 100 µM; in the assay on HEK293, above 100 µM.
In the case of `COc1ccc(N2C(=O)C3(c4ccccc4Oc4ccccc43)C2c2ccc(Oc3nc(N4CCOCC4)nc(N4CCOCC4)n3)cc2)cc1` (stereo not drawn), the IC50 in assay [1] is above 10000 µg/mL; with SW 1116 it was 38.4 µM; in the assay on HepG2 it was above 100 µM; with MCF7 it was above 100 µM; in the assay on HEK293, above 100 µM.
As to `CN(C)c1ccc(/N=C/c2ccc(Oc3nc(N4CCOCC4)nc(N4CCOCC4)n3)cc2)cc1`, the IC50 is 30 µg/mL (≈ 0.0613 mM) in assay [1]; 15.6 µM in the assay with SW 1116; above 100 µM in the assay on HepG2; above 100 µM with MCF7; above 100 µM with HEK293.
As to `Clc1ccc(/C=N/c2ccc(Nc3nc(N4CCOCC4)nc(N4CCOCC4)n3)cc2)cc1`, the IC50 in assay [1] is 275 µg/mL (≈ 0.573 mM); with SW 1116, 93.4 µM; in the assay with HepG2, above 100 µM; in the assay on MCF7, above 100 µM; in the assay with HEK293, above 100 µM.
For the compound `O=C1[C@@H](Oc2ccc(Cl)cc2)[C@@H](c2ccc(Oc3nc(N4CCOCC4)nc(N4CCOCC4)n3)cc2)N1c1ccc(Nc2nc(N3CCOCC3)nc(N3CCOCC3)n2)cc1`, the IC50 in assay [1] was above 10000 µg/mL; in the assay with SW 1116 it was above 100 µM; in the assay with HepG2, above 100 µM; in the assay on MCF7, above 100 µM; in the assay with HEK293 it was above 100 µM.
Take `COc1ccc(N2C(=O)[C@@H](Oc3ccc(Cl)cc3)[C@H]2c2ccc(Oc3nc(N4CCOCC4)nc(N4CCOCC4)n3)cc2)cc1` (relative stereo): the concentration for half-maximal inhibition (IC50) is 6200 µg/mL (≈ 9.61 mM) in assay [1]; 30 µM with SW 1116; above 100 µM in the assay with HepG2; above 100 µM with MCF7; above 100 µM with HEK293.
For `O=C1[C@@H](Oc2ccc(Cl)cc2)[C@@H](c2ccc(Cl)cc2)N1c1ccc(Nc2nc(N3CCOCC3)nc(N3CCOCC3)n2)cc1` (relative stereo), the half-inhibitory concentration (IC50) is above 10000 µg/mL in assay [1]; above 100 µM in the assay with SW 1116; above 100 µM in the assay with HepG2; above 100 µM in the assay with MCF7; above 100 µM in the assay on HEK293.
With `COc1cccc2c1C(=O)c1c(O)c3c(c(O)c1C2=O)C[C@@](O)(C(=O)CO)C[C@@H]3O[C@H]1C[C@H](N)[C@H](O)[C@H](C)O1` [DOXORUBICIN], the concentration for half-maximal inhibition (IC50) with SW 1116 was found to be 6.9 µM; in the assay on HepG2 it was 7.3 µM; in the assay on HEK293, 6.1 µM.
Turning to `O=C1[C@@H](Oc2ccc(Cl)cc2)[C@@H](c2cccc([N+](=O)[O-])c2)N1c1ccc(Nc2nc(N3CCOCC3)nc(N3CCOCC3)n2)cc1` (relative stereo), the IC50 was above 10000 µg/mL in assay [1]; 100 µM in the assay with SW 1116; above 100 µM in the assay on HepG2; above 100 µM with MCF7; above 100 µM with HEK293.
Regarding `O=C1[C@@H](Oc2ccc(Cl)cc2Cl)[C@@H](c2ccc([N+](=O)[O-])cc2)N1c1ccc(Nc2nc(N3CCOCC3)nc(N3CCOCC3)n2)cc1` (relative stereo), the IC50 is 5800 µg/mL (≈ 8.36 mM) in assay [1]; 35.7 µM in the assay with SW 1116; above 100 µM with HepG2; above 100 µM in the assay with MCF7; above 100 µM with HEK293.
For the compound `O=C1[C@@H](Oc2ccccc2)[C@@H](c2ccc(Oc3nc(N4CCOCC4)nc(N4CCOCC4)n3)cc2)N1c1ccc(Nc2nc(N3CCOCC3)nc(N3CCOCC3)n2)cc1` (relative stereo), the concentration for half-maximal inhibition (IC50) is above 10000 µg/mL in assay [1]; above 100 µM in the assay on SW 1116; above 100 µM with HepG2; above 100 µM in the assay with MCF7; above 100 µM in the assay with HEK293.
With `COc1ccc(N2C(=O)[C@@H](Oc3ccccc3)[C@H]2c2ccc(Oc3nc(N4CCOCC4)nc(N4CCOCC4)n3)cc2)cc1`, the IC50 in assay [1] is above 10000 µg/mL; with SW 1116 it was above 100 µM; with HepG2 it was above 100 µM; in the assay with MCF7, above 100 µM; in the assay on HEK293, above 100 µM.
For the compound `COc1ccc(/N=C/c2ccc(Oc3nc(N4CCOCC4)nc(N4CCOCC4)n3)cc2)cc1`, the half-inhibitory concentration (IC50) in assay [1] was 195 µg/mL (≈ 0.409 mM); with SW 1116 it was above 100 µM; in the assay on HepG2, above 100 µM; with MCF7, above 100 µM; in the assay on HEK293, above 100 µM.
For the compound `COc1ccc(N2C(=O)[C@@H](Oc3ccc(Cl)cc3Cl)[C@H]2c2ccc(Oc3nc(N4CCOCC4)nc(N4CCOCC4)n3)cc2)cc1` (relative stereo), the IC50 is 9600 µg/mL (≈ 14.1 mM) in assay [1]; 2.7 µM in the assay with SW 1116; above 100 µM with HepG2; above 100 µM with MCF7; above 100 µM in the assay on HEK293.
As for `O=C1[C@@H](Oc2ccccc2)[C@@H](c2ccc([N+](=O)[O-])cc2)N1c1ccc(Nc2nc(N3CCOCC3)nc(N3CCOCC3)n2)cc1` (relative stereo), the IC50 was above 10000 µg/mL in assay [1]; 17.5 µM in the assay with SW 1116; above 100 µM in the assay on HepG2; above 100 µM with MCF7; above 100 µM in the assay with HEK293.
In the case of `C(=N\c1ccc(Nc2nc(N3CCOCC3)nc(N3CCOCC3)n2)cc1)/c1ccc(Oc2nc(N3CCOCC3)nc(N3CCOCC3)n2)cc1`, the IC50 in assay [1] is above 10000 µg/mL; in the assay with SW 1116, above 100 µM; with HepG2 it was above 100 µM; in the assay with MCF7, above 100 µM; in the assay with HEK293, above 100 µM.
Consider `O=C1[C@@H](Oc2ccccc2)[C@@H](c2ccc(Cl)cc2)N1c1ccc(Nc2nc(N3CCOCC3)nc(N3CCOCC3)n2)cc1` (relative stereo), for which the IC50 is 4800 µg/mL (≈ 7.82 mM) in assay [1]; above 100 µM with SW 1116; above 100 µM in the assay on HepG2; above 100 µM with MCF7; above 100 µM with HEK293.
For the compound `O=C1[C@@H](Oc2ccc(Cl)cc2Cl)[C@@H](c2ccc(Oc3nc(N4CCOCC4)nc(N4CCOCC4)n3)cc2)N1c1ccc(Nc2nc(N3CCOCC3)nc(N3CCOCC3)n2)cc1` (relative stereo), the IC50 was above 10000 µg/mL in assay [1]; above 100 µM in the assay on SW 1116; above 100 µM in the assay on HepG2; above 100 µM with MCF7; above 100 µM in the assay on HEK293.
Turning to `O=C1[C@@H](Oc2ccc(Cl)cc2Cl)[C@@H](c2ccc(Cl)cc2)N1c1ccc(Nc2nc(N3CCOCC3)nc(N3CCOCC3)n2)cc1` (relative stereo), the IC50 in assay [1] was above 10000 µg/mL; in the assay on SW 1116, 86.2 µM; with HepG2, above 100 µM; with MCF7, above 100 µM; in the assay with HEK293, above 100 µM.
Take `CCOc1ccc(N2C(=O)[C@@H](Oc3ccc(Cl)cc3)[C@H]2c2ccc(Oc3nc(N4CCOCC4)nc(N4CCOCC4)n3)cc2)cc1` (relative stereo): the 50% inhibitory concentration (IC50) was above 10000 µg/mL in assay [1]; 1.53 µM in the assay with SW 1116; above 100 µM with HepG2; above 100 µM in the assay with MCF7; above 100 µM in the assay on HEK293.
In the case of `O=C1[C@@H](Oc2ccc(Cl)cc2Cl)[C@@H](c2cccc([N+](=O)[O-])c2)N1c1ccc(Nc2nc(N3CCOCC3)nc(N3CCOCC3)n2)cc1` (relative stereo), the IC50 in assay [1] was above 10000 µg/mL; with SW 1116 it was above 100 µM; in the assay with HepG2, above 100 µM; with MCF7, above 100 µM; in the assay with HEK293 it was above 100 µM.
